Measurements published in patent US20200390889A1, “REMOTELY TRIGGERED THERAPY” (Bambu Vault LLC, priority 2019, published 2020).

assay: not given; settings: likelihood of association with drug induced liver injury, based upon the known potential of the drug; cited from earlier work

SMILES	Likelihood Score
CCN1CCN(Cc2ccc(Nc3ncc(F)c(-c4cc(F)c5nc(C)n(C(C)C)c5c4)n3)nc2)CC1 [Abemaciclib]	E*
CCS(=O)(=O)N1CC(CC#N)(n2cc(-c3ncnc4[nH]ccc34)cn2)C1 [Baricitinib]	E*
Cn1cnc2c(F)c(Nc3ccc(Br)cc3F)c(C(=O)NOCCO)cc21 [Binimetinib]	E*
COc1cc(Nc2c(C#N)cnc3cc(OCCCN4CCN(C)CC4)c(OC)cc23)c(Cl)cc1Cl [Bosutinib]	E*
COc1cc(N2CCC(N3CCN(C)CC3)CC2)ccc1Nc1ncc(Cl)c(Nc2ccccc2P(C)(C)=O)n1 [Brigatinib]	E*
COc1cc2nccc(Oc3ccc(NC(=O)C4(C(=O)Nc5ccc(F)cc5)CC4)cc3)c2cc1OC [Cabozantinib]	E*
COc1c(OCCCN2CCOCC2)ccc2c1N=C(NC(=O)c1cnc(N)nc1)N1CCN=C21 [Copanlisib]	E*
CC(C)(C)c1nc(-c2cccc(NS(=O)(=O)c3c(F)cccc3F)c2F)c(-c2ccnc(N)n2)s1 [Dabrafenib]	E*
COc1cc2ncnc(Nc3ccc(F)c(Cl)c3)c2cc1NC(=O)/C=C/CN1CCCCC1 [Dacomitinib]	E*
C[C@H](Nc1ncnc2[nH]cnc12)c1cc2cccc(Cl)c2c(=O)n1-c1ccccc1 [Duvelisib]	E*
CC(C)(O)CNc1nc(Nc2ccnc(C(F)(F)F)c2)nc(-c2cccc(C(F)(F)F)n2)n1 [Enasidenib]	E*
COC(=O)N[C@@H](C)CNc1nccc(-c2cn(C(C)C)nc2-c2cc(Cl)cc(NS(C)(=O)=O)c2F)n1 [Encorafenib]	E*
COc1cc(Nc2ncc(F)c(Nc3ccc4c(n3)N(COP(=O)(O)O)C(=O)C(C)(C)O4)n2)cc(OC)c1OC [Fostamatinib]	E*
CCc1nc(C(N)=O)c(Nc2ccc(N3CCC(N4CCN(C)CC4)CC3)c(OC)c2)nc1NC1CCOCC1 [Gilteritinib]	E*
CN1CC[C@@H](NC(=O)Nc2ccc(C#N)cc2)C[C@@H]1c1nc2ccccc2[nH]1 [Glasdegib]	E*
N#Cc1ccnc(N2C(=O)CC[C@H]2C(=O)N(c2cncc(F)c2)[C@H](C(=O)NC2CC(F)(F)C2)c2ccccc2Cl)c1 [Ivosidenib]	E*

SMILES	Likelihood Score
CC(C)C[C@H](NC(=O)CNC(=O)c1cc(Cl)ccc1Cl)B(O)O [Ixazomib]	E*
O=C(Nc1cnn2ccc(N3CCC[C@@H]3c3cc(F)ccc3F)nc12)N1CC[C@H](O)C1 [Larotrectinib]	E*
C[C@H]1Oc2cc(cnc2N)-c2c(nn(C)c2C#N)CN(C)C(=O)c2ccc(F)cc21 [Lorlatinib]	E*
CO[C@@H]1[C@H](N(C)C(=O)c2ccccc2)C[C@H]2O[C@]1(C)n1c3ccccc3c3c4c(c5c6ccccc6n2c5c31)C(=O)NC4 [Midostaurin]	E*
CCOc1cc2ncc(C#N)c(Nc3ccc(OCc4ccccn4)c(Cl)c3)c2cc1NC(=O)/C=C/CN(C)C [Neratinib]	E*
COC(=O)c1ccc2c(c1)NC(=O)/C2=C(\Nc1ccc(N(C)C(=O)CN2CCN(C)CC2)cc1)c1ccccc1 [Nintedanib]	E*
NC(=O)c1cccc2cn(-c3ccc([C@@H]4CCCNC4)cc3)nc12 [Niraparib]	E*
CC(=O)c1c(C)c2cnc(Nc3ccc(N4CCNCC4)cn3)nc2n(C2CCCC2)c1=O [Palbociclib]	E*
Cc1ccc(C(=O)Nc2ccc(CN3CCN(C)CC3)c(C(F)(F)F)c2)cc1C#Cc1cnc2cccnn12 [Ponatinib]	E*
CNCc1ccc(-c2[nH]c3cc(F)cc4c3c2CCNC4=O)cc1 [Rucaparib]	D*
N#CC[C@H](C1CCCC1)n1cc(-c2ncnc3[nH]ccc23)cn1 [Ruxolitinib]	E*
Cc1c(C(=O)Nc2ccc(N3C[C@@H](C)O[C@@H](C)C3)nc2)cccc1-c1ccc(OC(F)(F)F)cc1 [Sonidegib]	E*
Cn1ncnc1[C@H]1c2n[nH]c(=O)c3cc(F)cc(c23)N[C@@H]1c1ccc(F)cc1 [Talazoparib]	E*
COc1cc2c(Nc3ccc(Br)cc3F)ncnc2cc1OCC1CCN(C)CC1 [Vandetanib]	E*
CCCS(=O)(=O)Nc1ccc(F)c(C(=O)c2c[nH]c3ncc(-c4ccc(Cl)cc4)cc23)c1F [Vemurafenib]	E*

assay: Retention of tetrakis aminium dye during emulsification with different surfactants; assay type: physicochemical; settings: 0.2% surfactant in aqueous phase during emulsification
Description: IR absorbing agent weight ratio=4.4:1). The organic phase (polymer and IR absorbing agents dissolved in dichloromethane) was injected directly into the aqueous phase (PVA solution with SDS surfactant) at the tip of the Turrax's roto-stator (i.e. directly into the flow being sheared by the roto-stator). The shear mixing at 8000 RPM was continued for 30 minutes. The resulting mixture was decanted into an open-mouth container and stirred magnetically for 16 hours. A solid suspension of particles containing IR absorbing agent was obtained. The solid suspension was centrifuged at 5000 RPM for 30 minutes and the particles were collected. The collected particles were washed with distilled water by resuspending the particles into distilled water and centrifuging as before to collect the particles. This washing process was repeated three times to remove residual PVA. The resulting MMA/IA/BMA copolymer particles containing IR absorbing agent were air-dried. In the emulsion method of encapsulation, a surfactant is necessary to help keep the emulsion stable. While Aerosol® TR-70 (sodium bis(tridecyl) sulfosuccinate) could be used as an emulsifier to prepare polymer particles encapsulating Epolight™ 1117 tetrakis aminium dye, TR-70 only provided limited stabilization effects on the tetrakis aminium dye. […] Reducing the amount of SDS in the aqueous phase led to lower Epolight™ 1117 retention and larger particle size (Table 5).

SMILES	% Epolight 1117 Retention
CCCCCCCCCCCCOS(=O)(=O)[O-].[Na+] [SDS, sodium dodecyl sulfate]	74.97%

same assay, conditions: 0.4% surfactant in aqueous phase during emulsification

SMILES	% Epolight 1117 Retention
CCCCCCCCCCCCOS(=O)(=O)[O-].[Na+] [SDS, sodium dodecyl sulfate]	80.17%

same assay, conditions: 0.6% surfactant in aqueous phase during emulsification

SMILES	% Epolight 1117 Retention
CCCCCCCCCCCCOS(=O)(=O)[O-].[Na+] [SDS, sodium dodecyl sulfate]	82.96%
CCCCCCCCCCCCCOC(=O)CC(C(=O)OCCCCCCCCCCCCC)S(=O)(=O)O.[Na] (centres unmarked) [TR-70, sodium bis(tridecyl) sulfosuccinate]	51.70%

same assay, conditions: during the emulsion and evaporation process

SMILES	retention of Epolight 1117 in the particles
CCCCCCCCCCCCOS(=O)(=O)[O-].[Na+] [SDS, sodium dodecyl sulfate]	85-90%
CCCCCCCCCCCCCOC(=O)CC(C(=O)OCCCCCCCCCCCCC)S(=O)(=O)O.[Na] (centres unmarked) [TR-70, sodium bis(tridecyl) sulfosuccinate]	50%

assay: Screening of acrylic polymers and additives for IR absorbing agent stability and retention; assay type: physicochemical; settings: additive within the particles
Description: Various commercially available acrylic polymers were screened for preferred particle performance characteristic such as particle size distribution, IR absorbing agent stability and encapsulation efficiency. […] NeoCryl® B-818, an ethyl acrylate/ethyl methacrylate copolymer, contained a lower hydroxyl value, but was still swellable in low molecular weight alcohols. NeoCryl® B-805, a methyl methacrylate/butyl methacrylate copolymer, had suitably a low hydroxyl value and a high Tg (99° C.) for human body applications.
The loading of IR absorbing agents within the particles is as high as possible without degrading the cohesion of the polymer. The additives that stabilize the IR absorbing agent within the particles have been studied.

SMILES	impact on IR absorbing agent stability
Cc1cc(C(C)(C)C)c(O)c(C)c1Cn1c(=O)n(Cc2c(C)cc(C(C)(C)C)c(O)c2C)c(=O)n(Cc2c(C)cc(C(C)(C)C)c(O)c2C)c1=O [Cyanox® 1790, 1,3,5-tris(4-tert-butyl-3-hydroxy-2,6-dimethylbenzyl)-1,3,5-triazine-2,4,6-(1H,3H,5H)-trione]	positive impact
